The record followed here is patent publication US7429607B2, “5-HT2B receptor antagonists” (Asterand UK Limited, priority 2002, dated 2008).

Data set [1] deals with T1, human cloned 5-HT2B receptors (Homo sapiens, UniProt P41595).
T1 construct: expressed in transfected cells; host or cells: CHO-K1 cells
Nature of the data set: Human cloned 5-HT2B cell-based functional assay (Fluo-4, CHO.K1 cells). To be noted: inhibition of 5-HT response, CHO.K1 cells expressing cloned 5-HT2B, Fluo-4 AM. The protocol:
The following describes an in vitro functional assay using human cloned 5-HT2B receptors to determine the ability of compounds to block the receptor. CHO.K1 cells expressing cloned 5-HT2B receptor were maintained In Ultra-CHO medium containing 400 μg/ml of G418, 100 U/ml penicillin, 100 μg/ml streptomycin, 2.5 μg/ml fungizone, in 95/5% O2/CO2 at 37° C. Ultra-CHO medium additionally supplemented with 1% foetal bovine serum was used when seeding the cells and removed after 5 hours. Cells were plated in Costar 96 well white, clear-bottomed plate at a density of 50,000 cells per well and incubated for at least 24 hours in 95/5% O2/CO2 at 37° C. before running the assay. Media was removed from the wells and 200 μl of 4 μM Fluo-4 AM added, this was incubated in a Wallace Victor 2V workstation at 37° C. for 30 minutes. The Fluo-4 AM was then removed from the wells, which were then washed twice with 200 μl of buffer (HBSS without calcium/magnesium/phenol red, 20 mM HEPES, 1 mM Ca^2+, 1 mM Mg^2+, 2.5 mM probenecid, pH to 7.4), 180 μl of buffer or test compound was added to the well and incubated for 30 minutes. The Victor 2V injectors were used to inject 20 μl of 5-HT after obtaining 10 0.1-second baseline readings at 535 nm, followed by 150 readings. All test compounds were aliquoted in 100% DMSO at 10 mM and diluted to 1 mM in 50% DMSO, subsequent dilutions were made using buffer. Buffer was also used to dilute the 5-HT. Data were analysed using Microsoft Excel and GraphPad Prism, with the latter used to produce sigmoidal dose-response curves for each compound. The compound concentration that inhibited the 5-HT response by 50% was taken (IC50-M), and the results are shown in Table 3, as pIC50, being the negative log (to the base 10) of the measured IC50 values.

In data set [2] the target is T2, cloned human 5-HT2A receptor (Homo sapiens, UniProt P28223).
T2 construct: purchased Euroscreen; host or cells: CHO-K1 cells
In words: Human 5-HT2A receptor binding assay ([3H]ketanserin, CHO-K1 membranes). Particulars: displacement of [3H]ketanserin (1 nM), read-out: 5-HT2A pKi (converted). The protocol: (§1) The binding affinity of ligands for human 5-HT2A and 5-HT2C receptors was determined using the following assay.
Membrane preparations from CHO-K1 cells expressing the cloned human 5-HT2A receptor were obtained (Euroscreen). The membranes were thawed rapidly and diluted in assay buffer containing Tris-HCl (50 mM, pH 7.7). The membranes were resuspended by homogenisation, prior to adding 15 μg of membranes to assay wells containing [3H] ketanserin (1 nM), assay buffer (50 mM Tris at pH 7.4) containing pargyline (10 μM), and test compounds (1×10^−10 to 1×10^−4M). Non specific binding was determined in the presence of 100 μM mianserin. After 15 minutes incubation at 37° C., the assay mixture was filtered through a combination of GF-C and GF-B filters, pre-soaked in 0.05% Brij, using a Brandel cell harvester, and were washed three times using ice cold Tris-HCl buffer (50 mM). Radioactivity retained on the filters was determined by liquid scintillation counting. For each test compound, the concentration that inhibited binding of [^3H]ketanserin by 50% was determined using curve fitting software (Prism). Kd values (concentration of ketanserin required to occupy 50% of the receptor binding sites at equlibrium) determined from saturation binding studies were then used to calculate inhibition dissociation constants (Ki) using the following equation: […]
(In general: Displacement assays read how much labelled ligand stays bound in the presence of the test substance.)

For data set [3], the target named is T3, cloned human 5-HT2C receptor (Homo sapiens, UniProt P28335).
T3 construct: purchased Euroscreen; host or cells: CHO-K1 cells
T3 sequence (P28335 33-458): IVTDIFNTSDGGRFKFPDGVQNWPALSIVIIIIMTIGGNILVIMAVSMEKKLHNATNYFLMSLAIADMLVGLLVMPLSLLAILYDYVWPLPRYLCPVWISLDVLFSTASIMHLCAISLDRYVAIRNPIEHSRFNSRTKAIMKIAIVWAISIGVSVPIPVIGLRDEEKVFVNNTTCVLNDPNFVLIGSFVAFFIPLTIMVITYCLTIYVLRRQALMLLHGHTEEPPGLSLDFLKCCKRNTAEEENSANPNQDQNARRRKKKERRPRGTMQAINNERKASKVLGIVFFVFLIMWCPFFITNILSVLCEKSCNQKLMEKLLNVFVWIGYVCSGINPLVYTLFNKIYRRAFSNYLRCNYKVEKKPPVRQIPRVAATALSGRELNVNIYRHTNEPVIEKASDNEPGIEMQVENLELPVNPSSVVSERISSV
In words: Human 5-HT2C receptor binding assay ([3H]mesulergine, CHO-K1 membranes). Particulars: displacement of [3H]mesulergine (1 nM), read-out: 5-HT2C pKi (converted). How it is done:
as §1
Membrane preparations from CHO-K1 cells expressing the cloned human 5-HT2C receptor were obtained (Euroscreen). The membranes were thawed rapidly and diluted in assay buffer containing Tris-HCl (50 mM, pH 7.7), ascorbic acid (0.1%) and pargyline (10 μM). The membranes were resuspended by homogenisation, prior to adding 6 μg of membranes to assay wells containing [^3H] mesulergine (1 nM), assay buffer (50 mM Tris at pH 7.7 and 0.1% ascorbic acid) containing pargyline (10 μM), and test compounds (1×10^−10 to 1×10^−4M). Non specific binding was determined in the presence of 100 μM mianserin. After 30 minutes incubation at 37° C., the assay mixture was filtered through a combination of GF-C and GF-B filters, pre-soaked in 1% bovine serum albumin, using a Brandel cell harvester, and were washed three times using ice cold Tris-HCl buffer (50 mM). Radioactivity retained on the filters was determined by liquid scintillation counting. For each test compound, the concentration that inhibited binding of [3H]mesulergine by 50% was determined using curve fitting software (Prism). Kd values (concentration of mesulergine required to occupy 50% of the receptor binding sites at equlibrium) determined from saturation binding studies were then used to calculate inhibition dissociation constants (Ki) using the following equation: […]

T2 sequence (P28223 whole entry): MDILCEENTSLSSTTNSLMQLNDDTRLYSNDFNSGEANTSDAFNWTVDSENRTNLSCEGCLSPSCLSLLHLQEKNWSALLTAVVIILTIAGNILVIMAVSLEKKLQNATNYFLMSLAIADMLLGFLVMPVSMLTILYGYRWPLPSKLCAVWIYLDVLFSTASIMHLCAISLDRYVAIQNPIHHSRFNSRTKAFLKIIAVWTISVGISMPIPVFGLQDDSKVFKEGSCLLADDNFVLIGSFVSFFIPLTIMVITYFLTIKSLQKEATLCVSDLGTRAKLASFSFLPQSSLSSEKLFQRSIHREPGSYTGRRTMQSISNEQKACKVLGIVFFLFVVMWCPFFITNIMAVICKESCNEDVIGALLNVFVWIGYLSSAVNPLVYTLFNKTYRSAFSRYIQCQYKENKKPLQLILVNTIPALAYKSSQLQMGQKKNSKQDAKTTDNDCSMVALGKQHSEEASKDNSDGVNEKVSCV
T1 sequence (P41595 whole entry): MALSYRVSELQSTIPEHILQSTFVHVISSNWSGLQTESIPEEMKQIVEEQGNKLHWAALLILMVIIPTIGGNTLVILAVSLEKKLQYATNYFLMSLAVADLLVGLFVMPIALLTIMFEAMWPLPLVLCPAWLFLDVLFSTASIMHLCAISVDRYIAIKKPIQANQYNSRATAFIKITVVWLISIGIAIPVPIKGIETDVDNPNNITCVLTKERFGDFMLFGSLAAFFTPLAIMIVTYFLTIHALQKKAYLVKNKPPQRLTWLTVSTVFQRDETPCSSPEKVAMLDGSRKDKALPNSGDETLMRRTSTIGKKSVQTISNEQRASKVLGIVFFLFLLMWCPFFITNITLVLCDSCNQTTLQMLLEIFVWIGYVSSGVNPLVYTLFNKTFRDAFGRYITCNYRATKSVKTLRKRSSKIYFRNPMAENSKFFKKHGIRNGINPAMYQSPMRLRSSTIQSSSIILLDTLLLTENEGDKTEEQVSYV

Consider `COc1ccc2ccccc2c1-c1coc(N)n1` [Compound 17, 4-(2-methoxy-naphthalen-1-yl)-oxazol-2-ylamine], for which the IC50 in data set [1] was below 10 nM. Moreover, the Ki is above 1000 nM in data set [2] and above 100 nM in data set [3].

Compound `CC(C)c1nc(N)oc1-c1cccc2ccccc12` [Compound 7, 2-amino-4-isopropyl-5-(naphth-1-yl)oxazole] returned a melting point of 127 to 129 °C. Also, the IC50 in data set [1] was below 10 nM. Besides, the Ki in data set [2] was above 100 nM. Further, the Ki in data set [3] is above 1000 nM.

Consider `Nc1nc(-c2cccc3ccccc23)co1` [Compound 1, 2-amino-4-(naphth-1-yl)oxazole], for which the melting point lay in the range of 155 to 162 °C. In addition, the half-maximal inhibitory concentration (IC50) in data set [1] was below 100 nM. For the same compound, the Ki in data set [2] is above 10000 nM. Besides, the Ki in data set [3] was above 1000 nM.

In turn, `CC(C)c1nc(N)oc1-c1ccc(F)c2ccccc12` [Compound 31, 2-amino-5-(4′-fluoronaphth-1-yl)-4-isopropyloxazole] came in with a melting point of 141 °C. The same compound had an IC50 in data set [1] below 10 nM. The Ki in data set [2] is above 1000 nM. Moreover, the Ki in data set [3] was above 1000 nM.

For `Cc1ccc2ccccc2c1-c1coc(N)n1` [Compound 6, 2-amino-4-(2′-methylnaphth-1-yl)oxazole], the IC50 in data set [1] was below 100 nM. Also, the Ki in data set [2] and in data set [3] was above 1000 nM each time.

In general, IC50 refers to the point on the concentration scale where inhibition reaches its midpoint. Lower therefore signals greater potency in that assay. What is called melting point is the temperature of the solid-liquid transition.
